Results on six compounds are retold here after patent publication US11628221B2, “Peptide linker and combination for prodrugs activated by prostate-specific antigen” (priority 2017, dated 2023).

The subject of series [1] is LNCaP cells. The series is described as follows: cells. The following applies: for IC50: read-out: LNCaP IC50. As for the experimental part:
(§1) Monolayer cultures of PSA-secreting LNCaP and non-PSA-secreting DU145 human prostate carcinoma cells were conducted in growth medium in a CO2 incubator under a humidified atmosphere at 37° C. for 3 weeks prior to initiating cytotoxicity experiments. During cell growth, media were changed every 3 days and trypsinization carried out at 80% confluence with a 1:4 split for subsequent cultures. Cells were grown on 96-well plates for 48 h at initial concentrations of 5000 cells/well. At the end of the 48-h period, the growth medium was replaced by serum-free medium RPMI 1640 medium containing L-glutamine (2 mM), 2% TCM, penicillin G (100 units/mL) and streptomycin sulfate (100 units/mL), and prodrugs added to wells at concentrations ranging from 0.07 to 100 μM. The plates were incubated at 37° C. for 72 h under a humidified CO2 atmosphere, and cell viability determined using the MTT assay. Briefly, 10 μL aliquots of a 12 mM MTT solution were added to wells and the plates incubated in a CO2 incubator under a humidified atmosphere at 37° C. for 4 h. Well contents were then solubilized with 1% SDS (100 μL/well) for 12 h, and OD570 values measured on a Dynatech MR5000 plate reader. Cell viability was computed as a percentage of control growth, and IC50 values determined as the concentration at which cell growth is inhibited by 50%.
(§2) To assess cytotoxicity and tumor selectivity, all prodrugs were incubated in cultured cell lines secreting (LNCaP) or lacking (DU145) PSA for a period of 72 h. Doxorubicin was used as a positive control and cell viability determined at the end of the incubation period using an MTT assay. It was anticipated that peptide prodrugs would be activated extracellularly in LNCaP, but not DU145 cells, by the proteolytic action of PSA releasing doxorubicin that would ultimately lead to cell death.

For series [2], the system named is DU145 cells. The series is described as follows: Prodrug cytotoxicity in non-PSA-secreting DU145 cells (MTT assay), selectivity. Format: cell-based, human. The following applies: LNCaP versus non-PSA-secreting DU145 cells, 72 h. As for the experimental part: as §1, §2
In general terms: Tetrazolium dyes change colour on reduction, which living cells bring about.

Series [3] relates to tumor cells. The following applies: cited from earlier work.
Series [4] concerns the target human PSA (Homo sapiens, UniProt P07288). As to the kind of experiment: Hydrolysis of doxorubicin prodrugs by PSA (PSA enzyme assay, LC-MS/MS prodrug disappearance). The following applies: for % of prodrug at 60 min: prodrug 1 μM incubated with human PSA 1 μM, 50 mM Tris buffer pH 8, 37° C.
Procedure: (§3) For doxorubicin conjugates, peptide solution concentrations were determined by measuring the UV absorbance at 484 and 254 nm (20 μM for doxorubicin and 50 μM for phosphoramide mustard conjugates, respectively) of solutions prepared (based on weight) in water from 10 mM DMSO stock solutions. Using the extinction coefficients of doxorubicin at 484 nm (10,800 M-1·cm-1), peptide concentrations were calculated and adjusted accordingly to prepare 100 μM solutions in 50 mM Tris buffer, pH 8 containing 2 mM CaCl2 and 0.1% Tween 20. […] Peptide solutions were prepared in Tris buffer pH 8 at a concentration of 1.11 μM from 1 mM DMSO stock solutions, and warmed up to 37° C. Reactions were initiated at 37° C. with the addition of 5 μL aliquots of a 10 μM solution of human PSA to 45 μL aliquots of the 1.11 μM peptide solutions in eppendorf vials (total volume 50 μL, final PSA concentration 1 μM), and time points recorded over a period of 3 h. Reactions were terminated at 0, 10, 20, 30, 60, 120, 180 and 360 min by quenching 2 μL aliquots of incubates with 20 μL of chilled 50% ACN containing 0.1 μM internal standard (IS) and 0.1% formic acid (FA) pre-added to eppendorf vials. Samples were centrifuged at 3000 RPM for 15 min and the supernatants analyzed by LC-MS/MS in SRM mode as previously described. The fraction of prodrug remaining at each time point was calculated by dividing the prodrug/IS ratio by the 0-h prodrug/IS area ratio and half-life determined from prodrug disappearance rate.
(§4) Substrate disappearance was monitored by LC-MS/MS analysis using SRM. The percentage of prodrug remaining at any given time point was computed by taking the ratio of its peak area response and that of the 0-h time point.
Series [5] deals with PSA (prostate-specific antigen) (Homo sapiens, UniProt P07288). The description is as above. Conditions: human, pH 8.
Procedure: as §3, §4
Setting [6] is: 72 h incubation, MTT assay, PSA-secreting LNCaP cells.

Where two headings read alike, the source gives them in different places. Numbered stars: 1 amine (or outer) side, 2 acyl side, 3 side chain; on linkers, the order of the positions; unused ones are H or OH. Square brackets hold non-standard residues; d marks the D form. Peptide text beside a SMILES is read from it. * marks the point of attachment. Doxorubicin(3'-N) = COc1cccc2c1C(=O)c1c(O)c3c(c(O)c1C2=O)C[C@@](O)(C(=O)CO)C[C@@H]3O[C@H]1C[C@H](N*)[C@H](O)[C@H](C)O1; Glutaryl = O=C(CCCC(=O)[*:2])[*:1]; Hyp = O=C(O)[C@@H]1C[C@@H](O)CN1; Chg = N[C@H](C(=O)O)C1CCCCC1; X1 = O=C(O)CCCNC(=O)CC(=O)*

Chain of human PSA (P07288 25-261): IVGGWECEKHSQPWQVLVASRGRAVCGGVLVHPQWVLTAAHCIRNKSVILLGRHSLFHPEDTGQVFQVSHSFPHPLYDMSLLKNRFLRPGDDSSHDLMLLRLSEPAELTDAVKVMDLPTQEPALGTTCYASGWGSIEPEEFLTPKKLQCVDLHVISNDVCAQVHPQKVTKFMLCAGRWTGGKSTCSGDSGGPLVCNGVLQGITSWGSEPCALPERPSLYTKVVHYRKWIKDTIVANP
Chain of PSA (prostate-specific antigen) (P07288 25-261): as above

As to `COc1cccc2c1C(=O)c1c(O)c3c(c(O)c1C2=O)C[C@@](O)(C(=O)CO)C[C@@H]3O[C@H]1C[C@H](N)[C@H](O)[C@H](C)O1` [Dox, Doxorubicin], in series [1] (Homo sapiens, LNCaP, 72 h), the 50% inhibitory concentration (IC50) was less than 70 nM. The “Selectivity against DU145” value in series [2] was determined as 1. Moreover, the “times more potent than Leu-Doxorubicin at killing tumor cells” value in series [3] is 10 times.

As for `COc1cccc2c1C(=O)c1c(O)c3c(c(O)c1C2=O)C[C@@](O)(C(=O)CO)C[C@@H]3O[C@H]1C[C@H](NC(=O)[C@@H](N)CC(C)C)[C@H](O)[C@H](C)O1` [Leu-Doxorubicin], the “fold less cytotoxic (than doxorubicin)” value in series [3] (Wong et al. (2001)) is recorded as 10 fold.

`COc1cccc2c1C(=O)c1c(O)c3c(c(O)c1C2=O)C[C@@](O)(C(=O)CO)C[C@@H]3O[C@H]1C[C@H](NC(=O)[C@H](CC(C)C)NC(=O)[C@H](CO)NC(=O)[C@H](CCC(N)=O)NC(=O)[C@@H](NC(=O)[C@H](CO)NC(=O)[C@H](C)NC(=O)[C@@H]2C[C@@H](O)CN2C(=O)CCCC(=O)O)C2CCCCC2)[C@H](O)[C@H](C)O1` [Prodrug 1, Glutaryl-Hyp-Ala-Ser-Chg-Gln-Ser-Leu-Dox] (Glutaryl-[Hyp]AS[Chg]QSL-{Doxorubicin(3'-N)}): in series [1] (setting [6]), the IC50 was found to be 180 nM. Moreover, the “% of prodrug at 60 min” value in series [4] is on record as 13%. Besides, the “Selectivity against DU145” value in series [2] is on record as 560.

In the case of `COc1cccc2c1C(=O)c1c(O)c3c(c(O)c1C2=O)C[C@@](O)(C(=O)CO)C[C@@H]3O[C@H]1C[C@H](NC(=O)[C@H](CC(C)C)NC(=O)[C@H](CO)NC(=O)[C@H](CCC(N)=O)NC(=O)[C@@H](NC(=O)[C@H](CO)NC(=O)[C@H](C)NC(=O)[C@H](CO)NC(=O)CCCC(=O)O)C2CCCCC2)[C@H](O)[C@H](C)O1` [Prodrug 2, Glutaryl-Ser-Ala-Ser-Chg-Gln-Ser-Leu-Dox] (Glutaryl-SAS[Chg]QSL-{Doxorubicin(3'-N)}), the IC50 in series [1] (setting [6]) was found to be 270 nM. Moreover, the “% of prodrug at 60 min” value in series [4] is listed as 12%. In series [2], the “Selectivity against DU145” value is listed as 370.

With `COc1cccc2c1C(=O)c1c(O)c3c(c(O)c1C2=O)C[C@@](O)(C(=O)CO)C[C@@H]3O[C@H]1C[C@H](NC(=O)[C@H](CC(C)C)NC(=O)[C@H](CO)NC(=O)[C@H](CCC(N)=O)NC(=O)[C@@H](NC(=O)[C@H](CO)NC(=O)[C@H](C)NC(=O)CC(=O)NCCCC(=O)O)C2CCCCC2)[C@H](O)[C@H](C)O1` [Prodrug 3, GABA←mGly-Ala-Ser-Chg-Gln-Ser-Leu-Dox] (X1-AS[Chg]QSL-{Doxorubicin(3'-N)}), the “cytotoxicity against PSA-secreting LNCaP cells (in words)” value in series [1] (72 h, MTT assay) is “most cytotoxic prodrug”. In addition, in series [5], the half-life at 1 μM was determined as 22 min.

For `COc1cccc2c1C(=O)c1c(O)c3c(c(O)c1C2=O)C[C@@](O)(C(=O)COC(=O)C(C)(C)CONC(=O)[C@H](CCC(N)=O)NC(=O)[C@@H](NC(=O)[C@H](CO)NC(=O)[C@H](C)NC(=O)CC(=O)NCCCC(=O)O)C1CCCCC1)C[C@@H]3O[C@H]1C[C@H](N)[C@H](O)[C@H](C)O1` [Prodrug 4, GABA←mGly-Ala-Ser-Chg-Gln-NH—O—CH2—C(Me)2C(O)-14-O-Dox], the “cytotoxicity against PSA-secreting LNCaP cells (in words)” value in series [1] (72 h, MTT assay) is recorded as “comparable to that of L-377,202”. Also, the “cytotoxin released by the prodrug” value in series [4] (PSA-mediated hydrolysis, LC-MS with accurate mass (FIG. 10)) is “free doxorubicin”. In addition, in series [5], the half-life at 1 μM was found to be 67 min.

One may read the IC50 as the concentration that gives 50% inhibition. For orientation: half-life means how long it takes for the measured level to halve.
